Experiments:
patients = experiment: Clinical studies of Blinatumomab in B-NHL and B-precursor ALL; assay type: in vivo, human
Text: Various clinical studies evaluating the safety and efficacy of Blinatumomab have been conducted both in B-NHL (Bargou et al. Science. 2008; 321:974-7) and B-precursor ALL (Topp et al. J Clin Oncol. 2011; 29:2493-8). […] These studies established clinical proof of concept for the high therapeutic potential of the bispecific single-chain antibody format in general and of Blinatumomab in special and validated its further development in B-NHL, ALL and CLL. Throughout these studies in B-NHL and B-precursor ALL several pharmacodynamic markers were assessed. […] It was characterized by a swift redistribution after start of infusion and any dose step, i.e. a fast disappearance of circulating T cells within the first 6-12 hours and a subsequent reappearance during the following 2-7 days where high initial B cell-counts correlated with decelerated kinetics of T cell-reappearance (FIG. 1A). This course seemed to be triggered by any significant dose changes of Blinatumomab rather than absolute serum concentrations. In addition, T cell-adhesiveness was measured throughout treatment week 1 by analyzing binding of soluble ICAM-1-Fc fusion proteins to LFA-1 on T cells. […] This finding coincided with T cell-redistribution and supported the concept of Blinatumomab-induced T cell-adhesion to endothelium during redistribution.

HUVEC = experiment: In vitro flow chamber: T cell-rolling and adhesion on HUVEC, long-term conditions; assay type: cell-based, human; conditions: 40 min
Procedure: Human brain microvascular endothelial cells (HBMEC) (#1000, Sciencell Research Laboratories) or human umbilical vein endothelial cells (HUVEC) (#C-12200, Promocell) were used as endothelial cell-model. Cryopreserved HBMEC at passage 1 (>5×10^5 cells/ml) were first cultivated in fibronectin-coated Nunclon-treated 75 cm^2 cell culture flasks (#156499, Nunc) at 37° C. and 5% CO2 in a Heraeus Cytoperm 2 (Thermo Scientific) according to the manufacturer's instructions. Sub-cultivation of HBMEC was done with the Detach Kit (#C-41200, Promocell) consisting of HEPES-buffered balanced salt solution (#C-40000, Promocell), trypsin-EDTA solution (0.04%/0.03%) (#C-41000, Promocell) and trypsin neutralization solution (TNS, #C-41100, Promocell). Briefly, the medium was aspirated from the HBMEC-layer and cells were washed with 2 ml of HEPES-buffered balanced salt solution. Addition of 2 ml of trypsin-EDTA solution for 1-5 min at room temperature led to detachment of HBMEC from the flask bottom. Inactivation of trypsin-EDTA solution was performed by addition of 2 ml of trypsin neutralization solution to the cell suspension. Cells were centrifuged at 300 g for 4 min in a Heraeus Megafuge 40 (Thermo Scientific) and seeded at a cell density of 5×10^5 cells per gelatin-coated 75 cm^2 cell culture flask (#L7230, Biochrom). HBMEC for rolling and adhesion experiments were cultivated in RPMI 1640 medium (#FG1215, Biochrom) supplemented with Nu-Serum IV (10%) (#355505, BD Biosciences), dialyzed FBS (10%) (#SZ0115, Biochrom), MEM-vitamins (1%) (#K0373, Biochrom), L-glutamine (1%) (#K0283, Biochrom), sodium-pyruvate (1%) (#L0473, Biochrom), heparin (10 U/ml) (#L6510, Biochrom), and […] cell growth factor ECGS (30 μg/ml) (#02-102, Millipore). Cultivation of HUVEC was done in endothelial cell growth medium (#C-22010, Promocell) supplemented with dialyzed FBS (10%) (#SZ0115, Biochrom) using gelatin-coated 75 cm^2 cell culture flasks. Sub-cultivation of HUVEC was performed with the Detach Kit ([…], Promocell) and cells were seeded at a cell density of 4.0-7.5×10^5 cells per 75 cm^2 cell culture flask.
Isolation of human PBMC from blood was performed by modified density gradient centrifugation as described elsewhere. Briefly, 15-20 ml of freshly drawn heparinized blood was transferred in Biocoll (#L6115, Biochrom)-containing Leukosep tubes (#227290, Greiner bio-one) and centrifuged in a Hettich Rotanta 460 RS Type 5606 (Hettich Laborapparate) at 1066 g for 15 min. After removal of the plasma fraction the PBMC containing phase was transferred in a new tube and washed twice with FACS-buffer (D-PBS #L1820, 5% FBS #SO115, Biochrom). Erythrocyte lysis was performed with lysis buffer (8.29 g/l NH4Cl, 1.00 g/l KHCO3, 0.037 g/l EDTA) for 5 min at room temperature. […]

Blinatumomab: recombinant CD19×CD3 bispecific scFv antibody consisting of four immunoglobulin variable domains assembled into a single polypeptide chain
time of disappearance of circulating T cells after start of infusion and any dose step (patients; T cell-redistribution, irrespective of dose level): 6 to 12 h | time to return of LFA-1 binding affinity to baseline (patients; after peak): ≤ 5 days | time to peak of increased LFA-1 binding affinity to ICAM-1 (patients; binding of soluble ICAM-1-Fc to LFA-1 on T cells, treatment week 1): ≤ 48 h | time of reappearance of circulating T cells (patients; following T cell disappearance): 2 to 7 days | increase of number of adhering T cells (HUVEC; +AMG 103 10 ng/ml vs T cells alone, long-term): 2.1 fold | mean T cell-rolling velocity±SD (HUVEC; non-stimulated HUVEC (minocycline experiment), +AMG 103 10 ng/ml, control −AMG 103 169): 127±41 μm/sec

From patent US9688760B2, “Anti-leukocyte adhesion for the mitigation of potential adverse events caused by CD3-specific binding domains” (AMGEN RESEARCH (MUNICH) GMBH, priority 2013, dated 2017)
